Assay [1] deals with T1, tau (Homo sapiens, UniProt P10636). Put plainly: thioflavine T stain of heparin-induced tau aggregation. It is filed as biochemical. As to conditions: 10 μM tau.
The target in assay [2] is T1, tau. The assay can be described thus: sucrose-density gradient centrifugation with SDS-PAGE western blotting of tau. As to conditions: for amount of tau (granular and filamentous tau aggregates) fractionated into Fr3 and subsequent fractions: FIG. 11; for amount of tau in fractions Fr3, 4, 5, and 6: compound 100 μM, FIG. 2. It is filed as biochemical. For orientation: In western blotting, separated proteins are transferred to a membrane and probed.

Assay [3] has as its target T1, tau. Put plainly: quantification of insoluble tau pellet after centrifugation at 250000 xg. It is filed as biochemical. Conditions: pellet after 250000 xg for 2 h. On the procedure: For this analysis, 10-μM tau, a compound (1 μM, 10 μM, or 100 μM), and thioflavine T (a beta-pleated sheet structure-specific detection reagent) were mixed together. Thereafter, heparin, which is a tau aggregation inducer, was added to the mixture, and the resulting mixture was incubated at 37° C., thereby allowing tau to aggregate. Subsequently, the thioflavine T activity in an incubation sample was measured at various times to investigate tau aggregation inhibition effects by the compounds.
To further investigate the effects of these nine compounds on tau aggregation specifically, samples that had been incubated at 37° C. were centrifuged at 250000 ×g for 2 h, the resultant pellets were obtained so that the amount of insoluble tau were quantified.

The next assay deals with P301L tau Tg mice. The assay can be described thus: sarkosyl-insoluble tau in brains of P301L tau Tg mice. It is filed as in vivo.
For assay [4], the target named is T1, tau. Put plainly: atomic force microscope observation of tau aggregation. It is filed as biochemical. Conditions: sample incubated for 120 hours; FIG. 12. How it is done:
Thereafter, to analyze a change of tau aggregation by d-isoprenaline morphologically, the sample was investigated by using an atomic force microscope. A tau aggregation sample that had been incubated for 120 hours was loaded on a mica board and adsorbed thereon. […] FIG. 12A is a photograph of a control, FIG. 12B is a photograph showing effects of d-isoprenaline on a tau aggregation sample, and FIG. 12C is a graph of measured major axes of tau aggregation.

The target in assay [5] is T2, human P301L mutant tau (Homo sapiens, UniProt P10636, P618L).
T2 construct: expressed in transfected cells
Put plainly: SDS-insoluble tau in Neuro2a cells expressing P301L mutant tau. It is filed as cell-based. Conditions: Neuro2a cells, 0.01, 0.1 and 1 μM isoprenaline for 48 hours; FIG. 3.

The target of assay [6] is T2, human P301L mutant tau. Put plainly: tau phosphorylation (AT8) in RIPA-soluble fractions of Neuro2a cells. It is filed as cell-based. As to conditions: RIPA-soluble fraction, FIG. 4. On the procedure: As cells, Neuro2a cell lines in which human P301L mutant tau (i.e., mutant tau in which 301st proline of tau is changed to leucine) is expressed in stable were used. […] Then, SDS-insoluble fractions were obtained so that a change in the amounts of tau was observed.
In addition, changes of tau phosphorylation in radio-immunoprecipitation assay (RIPA) buffer-soluble fractions obtained from similar cells were analyzed. […] The composition of the RIPA buffer was 50 mM Tris-HCl (pH7.4), 150 mM sodium chloride, 0.25 w/v % sodium deoxycholate, 1 mM EGTA, and 1.0 w/v % NP-40 substitute.

The target in assay [7] is T3, WT tau (Homo sapiens, UniProt P10636).
T3 construct: expressed in transfected cells; host or cells: COS-7 (African green monkey kidney)
Put plainly: MC1 dot blotting and AT8 phosphorylation in WT tau-expressing COS-7 cells. It is filed as cell-based, African green monkey. An excerpt: Tau phosphorylations at AT8 sites are known to induce a tau conformational change (that can be detected with the MC1 antibody) observed in AD brains. Thus, WT tau was expressed in COS-7 cells (derived from African green monkey kidney), and a tau conformational change was detected by dot blotting using the MC1 antibody. The dot blotting is a technique of fixing protein to a nitrocellulose membrane or a PVDF membrane without separation through electrophoresis and specifically quantitating the protein amount with enzyme-labeled antibodies.

The target in assay [8] is T3, WT tau. Put plainly: tau and acetylated tubulin in microtubule fraction of WT tau-expressing COS-7 cells. It is filed as cell-based, African green monkey. As to conditions: 10 μM, 24 hours. How it is done: The homogenates were then centrifuged at 3000×g for 5 min at 25° C., and thea supernatant was obtained as a total fraction. The total fraction was further centrifuged at 100000×g for 20 min at 20° C., and a pellet (a microtubule fraction) was obtained. In this manner, the microtubule fraction was taken from the COS-7 cells expressing WT tau, and acetylated tubulin serving as an index of tau and microtubule stabilization was detected.

In a further assay the test system is WT tau Tg mice. The assay can be described thus: tau dephosphorylation (tau1 antibody) in TBS-soluble fractions from WT tau Tg mice. It is filed as in vivo. As to conditions: TBS-soluble fraction; FIG. 9. The source says: A change in tau phosphorylation in TBS-soluble fractions from WT tau Tg mice was investigated.

The results in this text go back to patent publication US20180161288A1, “TAU AGGREGATION INHIBITOR” (National Center for Geriatrics and Gerontology, priority 2011, published 2018).

T2 sequence (P10636 1-441 isoform P10636-8 P301L): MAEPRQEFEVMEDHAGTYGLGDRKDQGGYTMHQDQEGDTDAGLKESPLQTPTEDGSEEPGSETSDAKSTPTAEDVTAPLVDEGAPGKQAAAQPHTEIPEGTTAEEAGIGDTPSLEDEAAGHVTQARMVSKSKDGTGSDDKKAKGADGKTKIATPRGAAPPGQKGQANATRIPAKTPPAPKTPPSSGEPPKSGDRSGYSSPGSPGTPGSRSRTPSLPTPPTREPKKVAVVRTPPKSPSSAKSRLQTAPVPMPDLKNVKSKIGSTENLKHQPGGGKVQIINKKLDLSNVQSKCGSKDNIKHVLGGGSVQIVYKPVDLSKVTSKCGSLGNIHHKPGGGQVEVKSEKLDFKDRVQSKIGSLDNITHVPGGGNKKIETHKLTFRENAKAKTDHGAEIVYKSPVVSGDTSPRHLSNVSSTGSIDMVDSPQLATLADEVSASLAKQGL
T1 sequence (P10636 1-441 isoform P10636-8): as the sequence (P10636 1-441 isoform P10636-8 P301L) above, with L301P counted along it
T3 sequence (P10636 1-441 isoform P10636-8): as the sequence (P10636 1-441 isoform P10636-8 P301L) above, with L301P counted along it

For `CC(C)NCC(O)c1ccc(O)c(O)c1` (racemic) [d/l-isoprenaline, mixture of (S)-(+)-isoprenaline and (R)-(−)-isoprenaline], the “thioflavine T activity” value on tau [1] (compound 1-100 μM, FIG. 10) is recorded as “inhibition of thioflavine T activity”. Besides, the “amount of tau (granular and filamentous tau aggregates) fractionated into Fr3 and subsequent fractions” value on tau [2] was “apparently reduced the amount of tau”.

Turning to `CNC[C@H](O)c1ccc(O)c(O)c1` [(R)-(−)-epinephrine], the “thioflavine T activity” value at tau [1] (FIG. 1, heparin, 37° C.) was “significantly reduced thioflavine T activity”. Further, the “amount of insoluble tau” value on tau [3] is on record as “reduced the amount of insoluble tau in a concentration dependent manner”. The “amount of tau in fractions Fr3, 4, 5, and 6” value at tau [2] is “reduced the amount of tau in fractions Fr3, 4, 5, and 6”.

Consider `CC(C)NC[C@@H](O)c1ccc(O)c(O)c1` [d-isoprenaline, (S)-(+)-isoprenaline], for which the “thioflavine T activity” value on tau [1] (compound 1-100 μM, FIG. 10) is reported as “inhibition of thioflavine T activity similar to that of d/l-isoprenaline”. The “amount of tau (granular and filamentous tau aggregates) fractionated into Fr3 and subsequent fractions” value at tau [2] is reported as “apparently reduced the amount of tau”. In addition, in the assay on P301L tau Tg mice (mice aged 20-21 months, 2.168 mg/g fed in mash for three months, FIGS. 13, 14), the “amount of insoluble tau in cerebral cortices” value is “apparently reduced the amount of insoluble tau”. For the same molecule, the “amount of insoluble tau in hippocampi” value with P301L tau Tg mice (mice aged 20-21 months, 2.168 mg/g fed in mash for three months, FIGS. 15, 16) was “apparently reduced the amount of insoluble tau”. For the same molecule, at tau [4], the “number of tau aggregates having major axes of 20 nm or more” value is “apparently reduced the number of tau aggregates”.

With `NCCc1ccc(O)c(O)c1` [dopamine], the “thioflavine T activity” value on tau [1] (FIG. 1, heparin, 37° C.) was “significantly reduced thioflavine T activity”.

Turning to `CC(C)NCC(O)c1ccc(O)c(O)c1` (centres unmarked) [isoprenaline], on tau [1] (FIG. 1, heparin, 37° C.), the “thioflavine T activity” value was “significantly reduced thioflavine T activity”. For the same molecule, on tau [2], the “amount of tau in fractions Fr3, 4, 5, and 6” value was “reduced the amount of tau in fractions Fr3, 4, 5, and 6”. In addition, the “amount of SDS-insoluble tau” value on human P301L mutant tau [5] was “reduced the amounts of SDS-insoluble tau”. Moreover, the “tau phosphorylation (AT8)” value at human P301L mutant tau [6] is “reduced tau phosphorylation”. In addition, the “tau phosphorylation (AT8 sites)” value at WT tau [7] (FIG. 5C) was “also reduced phosphorylation”. Moreover, the “tau conformational change detected with MC1 antibody” value on WT tau [7] (TBS-soluble fraction, FIG. 5A, 5B) is “reduced the tau conformational change”. Also, the “amount of tau in the microtubule fraction” value at WT tau [8] (FIG. 6A-C) is reported as “increased the amount of tau in the microtubule fraction”. For the same molecule, the “amount of acetylated tubulin” value at WT tau [8] (FIG. 6D-F) was “further increased the amount of acetylated tubulin”. Further, the “amount of sarkosyl-insoluble tau in the brains” value in the assay with P301L tau Tg mice (1.5 mg/g fed mixed in mash for three months, FIG. 7) is on record as “reduced the amount of sarkosyl-insoluble tau”. The “dephosphorylation of tau labeled by tau1 antibody” value with WT tau Tg mice is listed as “induced dephosphorylation of tau”.

For `[Cl-].[Li+]` [lithium chloride], the “amount of SDS-insoluble tau” value on human P301L mutant tau [5] was “reduced the amounts of SDS-insoluble tau”.

Take `NC[C@H](O)c1ccc(O)c(O)c1` [norepinephrine]: the “thioflavine T activity” value on tau [1] (FIG. 1, heparin, 37° C.) is listed as “significantly reduced thioflavine T activity”.
